In patent publication US20240125678A1, “COMPOUND, CELLULAR VESICLE STAIN, AND METHOD FOR FLUORESCENT STAINING OF CELLULAR VESICLES” (National University Corporation Tokai National Higher …, priority 2021, published 2024):

Experiments:
[1] = test system: cellular vesicles of HEK293 cells; assay: Fluorescent staining of cellular vesicles in HEK293 cells; format: cell-based, human; settings: 0.3 μM, excitation 470 nm
Description: (§1) Compound 1 was used to fluorescently stain cellular vesicles of HEK293 cells. The procedure is illustrated below. • (1) HEK293A cells (ThermoFisher) were plated in a glass bottom dish and cultured for 24 hours. […] Note that the measurement was performed with excitation at 470 nm.

[2] = test system: cellular vesicles of B16F10 cells; assay: Specificity 2: comparison with another cellular vesicle staining agent; format: cell-based, mouse; settings: Compound 1 3 μM without washing, ExoSparkler Mem Dye-Red 1 μL/mL with washing
Description: Compound 1 was used for fluorescent staining of intracellular vesicles. The procedure is illustrated below. • (1) 3×10^4 of B16F10 cells were plated in a glass bottom dish and cultured for 24 hours. • (2) Compound 1 was added to the culture medium to have the final concentration of 3 μM. • (3) Measurement was performed by using the fluorescence microscope. Note that the measurement was performed with excitation at 470 nm.
Comparative example 1 is the same as Example 18 except that, instead of Compound 1, 1 μL/mL of ExoSparkler Mem Dye-Red (340-09671 (Dojindo Laboratories)) was added to the culture medium, the culture medium was aspirated off after the addition of ExoSparkler Mem Dye-Red, and a new culture medium was added for washing. Note that the measurement was performed with excitation at 540 nm.

[3] = test system: cellular vesicles of B16F10 cells; assay: Specificity 3: staining in the presence of foreign substances (mouse dung); format: cell-based; settings: B16F10 cells mixed with mouse dung suspension; Compound 1 0.3 μM; CellMask reagent 1 μL
Description: Intracellular vesicles were fluorescently stained by Compound 1 in the presence of foreign substances. The procedure is illustrated below. • (1) 100 mg of mouse dung was collected, and the collected dung was suspended in 10-fold volume (1 mL) of phosphate buffer. • (2) B16F10 cells were detached using trypsin EDTA (NACALAI TESQUE) and collected, and 1×10^4 cells were suspended in 100 μL of phosphate buffer and mixed with 10 μL of the mouse dung suspension of (1) . • (3) The suspension of the cells and the […] was spread on a glass bottom dish, and 300 μM of Compound 1 was added to have the final concentration of 0.3 μM. • (4) Measurement was performed by using the fluorescence microscope. Note that the measurement was performed with excitation at 470 nm.
Comparative example 2 is the same as Example 19 except that, instead of Compound 1, 1 μL of CellMask reagent (C10045 (ThermoFisher)) was added to the suspension of the cells and the dung. Note that the measurement was performed with excitation at 540 nm.

milk exosomes [4] = assay: Fluorescent staining of exosomes; settings: 0.3 μM in phosphate buffer
[5] = test system: labeled milk exosomes in HEK293A cells; assay: Incorporation of labeled exosomes into cells; format: cell-based, human
[6] = test system: cellular vesicles of mouse malignant melanoma cells B16F10; assay: Fluorescent staining of intracellular vesicles with Compound 1 and anti-CD63 antibody; format: cell-based
[7] = test system: cellular vesicles of keratinocyte cells (PSVK1); assay: Fluorescent staining of cellular vesicles in keratinocyte cells (PSVK1); format: cell-based, human; settings: 0.3 μM, excitation 470 nm
Description: as §1, with “keratinocyte cells (PSVK1).” for “HEK293 cells.”, “PSVK1” for “HEK293A”, “(obtained from National Institute of Biomedical Innovation, Health and Nutrition, Cell Bank)” for “(ThermoFisher)”

[8] = test system: cellular vesicles of living B16F10 cells; assay: Specificity 1: staining of cellular vesicles of living versus fixed (dead) cells; format: cell-based, mouse; settings: B16F10, 0.3 μM, mixed fixed (dead) and living cells
[9] = test system: cellular vesicles / autophagosomes of B16F10 cells; assay: Detection of autophagosomes using a PIKfyve inhibitor; format: cell-based, mouse; settings: 3 μM
Description: An endosome-derived intracellular vesicle formation inhibitor (PIKfyve inhibitor) was used to detect autophagosomes. The procedure is illustrated below. • (1) 3×10^4 of B16F10 cells were plated in a glass bottom dish and cultured for 24 hours. • (2) Compound 1 was added to have the final concentration of 3 μM. • (3) Measurement was performed by using a fluorescence microscope. Note that the measurement was performed with excitation at 470 nm. • (4) PIKfyve inhibitor (HY-13228 (MedChemExpress)) was then added to the culture medium to have the final concentration of 10 μM, which was cultured for 1 hour. • (5) Measurement was performed by using the fluorescence microscope. • (6) PIKfyve inhibitor-containing culture medium was aspirated off, and washing operation was performed twice with a new culture medium, which was cultured with another new culture medium for 3 hours. • (7) Measurement was performed by using the fluorescence microscope.

milk exosomes [10] = assay: Calibration curve in exosome detection; settings: 0.3 μM, milk exosomes 0.1 to 1 ng per well, fetal bovine serum/phosphate buffer
[11] = test system: incorporation of labeled melanosomes into keratinocyte cells; assay: Inhibition of incorporation of labeled melanosomes into cells; format: cell-based; settings: inhibitor final concentration 10 μM, 12 hours, melanosomes labeled with Compound 1, excitation 488 nm
Description: Incorporation of melanosomes into cells was measured in the presence of a melanosome uptake inhibitor. […] As the melanosome uptake inhibitor, 6-shogaol (192-16161 (Fujifilm Wako)) was used. • (13) After 12 hours, the cells were washed twice with 100 μL of phosphate buffer. • (14) A plate reader (GroMax Multi (Promega)) was used to measure the labeled melanosomes. […]
Comparative Example 4 is the same as Example 29 except that the measurement with the plate reader was performed for absorbance at 450 nm.

| SMILES | fluorescent staining of cellular vesicle of HEK293 cell [1] | specificity of fluorescent staining to cellular vesicles [2] | specificity of fluorescent staining in the presence of foreign substances [3] | fluorescence with milk exosomes added (milk exosomes [4]; 10 ng milk exosomes, excitation 302 nm) | fluorescence without milk exosomes (Comparative example 3) (milk exosomes [4]; no milk exosome added) | incorporation of exosomes labeled with the compound into cells ([5]; HEK293A cells, 12 hours after addition) | conjugation with exosomes (overlap with ExoSparkler Mem Dye-Red fluorescence) ([5]; milk exosomes stained 5 minutes with 0.3 μM) | overlap of compound fluorescence with fluorescence of the antibody conjugated with CD63 ([6]; 0.3 μM, fixed, anti-CD63 antibody excited at 540 nm) | fluorescent staining of cellular vesicles ([6]; final concentration 0.3 μM, 5 minutes, excitation 470 nm) | fluorescent staining of cellular vesicle of PSVK1 cell [7] | staining of cellular vesicles of living cells versus dead cells [8] | fluorescent staining of PIKfyve dependent cellular vesicles ([9]; before/after PIKfyve inhibitor 10 μM 1 hour) | fluorescent staining of autophagosome membrane ([9]; cultured 3 hours after removal of PIKfyve inhibitor) | fluorescence intensity versus amount of added milk exosomes (milk exosomes [10]) | incorporation of labeled melanosomes into keratinocyte cells [11] |
| --- | --- | --- | --- | --- | --- | --- | --- | --- | --- | --- | --- | --- | --- | --- | --- |
| CN(C)c1ccc(CCCN(C)C2CCc3cc(OCCNc4ccc([N+](=O)[O-])c5nonc45)ccc32)cc1 (stereo not drawn) [Compound 1] | can fluorescently stain | high specificity to cellular vesicles | can specifically fluorescently stain cellular vesicles | conjugates with exosomes that are cellular vesicles and emits fluorescence | no fluorescence was emitted | are incorporated into cells | specifically conjugates with the exosomes | overlap each other | can fluorescently stain cellular vesicles | can fluorescently stain | fluorescently stains cellular vesicles of living cells | can also fluorescently stain the PIKfyve dependent cellular vesicles | the autophagosome membrane enclosing the melanosome was fluorescently stained | the fluorescence intensity increased depending on the amount of externally added milk exosomes | – |
| CCCCC/C=C/C(=O)CCc1ccc(O)c(OC)c1 [melanosome uptake inhibitor, 6-shogaol] | – | – | – | – | – | – | – | – | – | – | – | – | – | – | incorporation of the labeled melanosomes into keratinocyte cells is inhibited |
